From PubChem BioAssay (NCI)
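Abbreviation: GI50, concentration required for 50% inhibition of growth. TGI: concentration producing complete growth inhibition.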

Legend:
Assay in all cases: growth of human tumour cells (NCI), 384-well format
OVCAR-3 ovarian = system: OVCAR-3 ovarian
RXF 393 renal = system: RXF 393 renal
SK-OV-3 ovarian = system: SK-OV-3 ovarian
A498 renal = system: A498 renal
PC-3 prostate = system: PC-3 prostate
IGROV1 ovarian = system: IGROV1 ovarian
KM12 colon = system: KM12 colon
SK-MEL-28 melanoma = system: SK-MEL-28 melanoma
HCT-116 colon = system: HCT-116 colon
HS 578T breast = system: HS 578T breast
NCI-H23 lung = system: NCI-H23 lung
786-0 renal = system: 786-0 renal
A549 NSCLC = system: A549 NSCLC
DU-145 prostate = system: DU-145 prostate
SNB-75 CNS = system: SNB-75 CNS
TK-10 renal = system: TK-10 renal
NCI-H460 NSCLC = system: NCI-H460 NSCLC
BT-549 breast = system: BT-549 breast
SF-295 CNS = system: SF-295 CNS
M14 melanoma = system: M14 melanoma
SR leukemia = system: SR leukemia
HL-60(TB) leukemia = system: HL-60(TB) leukemia
UACC-62 melanoma = system: UACC-62 melanoma
SW-620 colon = system: SW-620 colon
COLO 205 colon = system: COLO 205 colon
MDA-MB-468 breast = system: MDA-MB-468 breast
UACC-257 melanoma = system: UACC-257 melanoma
MDA-MB-231 breast = system: MDA-MB-231 breast
OVCAR-8 ovarian = system: OVCAR-8 ovarian
MDA-MB-435 melanoma = system: MDA-MB-435 melanoma
CCRF-CEM leukemia = system: CCRF-CEM leukemia
UO-31 renal = system: UO-31 renal
MOLT-4 leukemia = system: MOLT-4 leukemia
HT29 colon = system: HT29 colon
RPMI-8226 leukemia = system: RPMI-8226 leukemia
SF-268 CNS = system: SF-268 CNS
HOP-92 NSCLC = system: HOP-92 NSCLC
SNB-19 CNS = system: SNB-19 CNS
HCC-2998 colon = system: HCC-2998 colon
U251 glioblastoma = system: U251 glioblastoma
NCI-H226 lung = system: NCI-H226 lung
OVCAR-4 ovarian = system: OVCAR-4 ovarian
MALME-3M melanoma = system: MALME-3M melanoma
NCI-H522 lung = system: NCI-H522 lung
HOP-62 NSCLC = system: HOP-62 NSCLC
SN12C renal = system: SN12C renal
NCI-H322M lung = system: NCI-H322M lung
SF-539 CNS = system: SF-539 CNS
T-47D breast = system: T-47D breast
MCF7 breast = system: MCF7 breast
CAKI-1 renal = system: CAKI-1 renal
HCT-15 colon = system: HCT-15 colon
ACHN renal = system: ACHN renal
NCI/ADR-RES ovarian = system: NCI/ADR-RES ovarian
LOX IMVI melanoma = system: LOX IMVI melanoma

Work on `CNC(=O)c1nn(C)c2c1C(C)(C)Cc1cnc(Nc3cccc(N4CCN(C)CC4)c3)nc1-2` yielded a GI50 (OVCAR-3 ovarian) of 0.167 µM, a TGI (OVCAR-3 ovarian) of 0.741 µM and a GI50 (RXF 393 renal) of 0.122 µM. The TGI (RXF 393 renal) was 2.14 µM, the GI50 (SK-OV-3 ovarian) was 0.0422 µM and the TGI (SK-OV-3 ovarian) was 1.29 µM. For the same molecule, the GI50 (A498 renal) was 0.0466 µM, the TGI (A498 renal) was 12.3 µM and the GI50 (PC-3 prostate) was 0.185 µM. The TGI (PC-3 prostate) was 11.2 µM, the GI50 (IGROV1 ovarian) was 0.0624 µM and the TGI (IGROV1 ovarian) was 0.616 µM. It also gave a GI50 (KM12 colon) of 0.0337 µM, a TGI (KM12 colon) of 10.6 µM and a GI50 (SK-MEL-28 melanoma) of 1.08 µM. It also gave a TGI (SK-MEL-28 melanoma) of 4.01 µM, a GI50 (HCT-116 colon) of 0.123 µM and a TGI (HCT-116 colon) of 11.7 µM. For the same molecule, the GI50 (HS 578T breast) was 0.148 µM, the TGI (HS 578T breast) was 1.31 µM and the GI50 (NCI-H23 lung) was 0.157 µM. For the same molecule, the TGI (NCI-H23 lung) was 0.895 µM, the GI50 (786-0 renal) was 0.309 µM and the TGI (786-0 renal) was 10.9 µM. The GI50 (A549 NSCLC) was 0.278 µM, the TGI (A549 NSCLC) was 12.8 µM and the GI50 (DU-145 prostate) was 0.522 µM. For the same molecule, the TGI (DU-145 prostate) was 10.5 µM, the GI50 (SNB-75 CNS) was 0.216 µM and the TGI (SNB-75 CNS) was 2.17 µM. It also gave a GI50 (TK-10 renal) of 0.336 µM, a TGI (TK-10 renal) of 10.4 µM and a GI50 (NCI-H460 NSCLC) of 0.0893 µM. It also gave a TGI (NCI-H460 NSCLC) of 5.35 µM, a GI50 (BT-549 breast) of 0.276 µM and a TGI (BT-549 breast) of 2.04 µM. For the same molecule, the GI50 (SF-295 CNS) was 0.375 µM, the TGI (SF-295 CNS) was 3.9 µM and the GI50 (M14 melanoma) was 0.124 µM. The TGI (M14 melanoma) was 3.59 µM, the TGI (SR leukemia) was 0.0573 µM and the GI50 (HL-60(TB) leukemia) was 0.0842 µM. For the same molecule, the TGI (HL-60(TB) leukemia) was 1.63 µM, the GI50 (UACC-62 melanoma) was 0.206 µM and the TGI (UACC-62 melanoma) was 2.26 µM. The GI50 (SW-620 colon) was 0.391 µM, the TGI (SW-620 colon) was 12.6 µM and the GI50 (COLO 205 colon) was 0.416 µM. The TGI (COLO 205 colon) was 9.35 µM, the GI50 (MDA-MB-468 breast) was 0.463 µM and the TGI (MDA-MB-468 breast) was 1.83 µM. The GI50 (UACC-257 melanoma) was 1.16 µM, the TGI (UACC-257 melanoma) was 4.3 µM and the GI50 (MDA-MB-231 breast) was 0.251 µM. It also gave a TGI (MDA-MB-231 breast) of 43.6 µM, a GI50 (OVCAR-8 ovarian) of 1.45 µM and a TGI (OVCAR-8 ovarian) of 17.1 µM. It also gave a GI50 (MDA-MB-435 melanoma) of 0.612 µM, a TGI (MDA-MB-435 melanoma) of 11.3 µM and a GI50 (CCRF-CEM leukemia) of 0.252 µM. The TGI (CCRF-CEM leukemia) was 1.21 µM, the GI50 (UO-31 renal) was 0.235 µM and the TGI (UO-31 renal) was 2.19 µM. It also gave a GI50 (MOLT-4 leukemia) of 0.13 µM, a TGI (MOLT-4 leukemia) of 0.317 µM and a GI50 (HT29 colon) of 0.886 µM. It also gave a TGI (HT29 colon) of 3.76 µM, a GI50 (RPMI-8226 leukemia) of 0.0954 µM and a TGI (RPMI-8226 leukemia) of 0.253 µM. It also gave a GI50 (SF-268 CNS) of 0.536 µM, a TGI (SF-268 CNS) of 2.27 µM and a GI50 (HOP-92 NSCLC) of 0.199 µM. The TGI (HOP-92 NSCLC) was over 100 µM, the GI50 (SNB-19 CNS) was 0.414 µM and the TGI (SNB-19 CNS) was 24.1 µM. The GI50 (HCC-2998 colon) was 0.433 µM, the TGI (HCC-2998 colon) was 6.56 µM and the GI50 (U251 glioblastoma) was 0.437 µM. It also gave a TGI (U251 glioblastoma) of 12.7 µM, a GI50 (NCI-H226 lung) of 0.251 µM and a TGI (NCI-H226 lung) of 4.6 µM. It also gave a GI50 (OVCAR-4 ovarian) of 2.26 µM, a TGI (OVCAR-4 ovarian) of 10.6 µM and a GI50 (MALME-3M melanoma) of 0.253 µM. The TGI (MALME-3M melanoma) was 2.03 µM, the GI50 (NCI-H522 lung) was 0.153 µM and the TGI (NCI-H522 lung) was 0.436 µM. It also gave a GI50 (HOP-62 NSCLC) of 0.357 µM, a TGI (HOP-62 NSCLC) of 7.18 µM and a GI50 (SN12C renal) of 0.198 µM. For the same molecule, the TGI (SN12C renal) was 1.74 µM, the GI50 (NCI-H322M lung) was 0.523 µM and the TGI (NCI-H322M lung) was 11.2 µM. It also gave a GI50 (SF-539 CNS) of 0.405 µM, a TGI (SF-539 CNS) of 3.42 µM and a GI50 (T-47D breast) of 1.61 µM. For the same molecule, the TGI (T-47D breast) was 13.5 µM, the GI50 (MCF7 breast) was 0.345 µM and the TGI (MCF7 breast) was 11.4 µM.
`O=C(CCBr)N1CCN(C(=O)CCBr)CC1` was tested, and the GI50 (OVCAR-3 ovarian) was 41.5 µM, the GI50 (RXF 393 renal) was 44.4 µM and the GI50 (CAKI-1 renal) was 33.3 µM. It also gave a GI50 (SK-OV-3 ovarian) of 45.2 µM, a GI50 (A498 renal) of 70.1 µM and a GI50 (PC-3 prostate) of 82 µM. The GI50 (KM12 colon) was 88.1 µM, the GI50 (HCT-116 colon) was 26.5 µM and the GI50 (HS 578T breast) was 22.5 µM. It also gave a GI50 (NCI-H23 lung) of 34.7 µM, a GI50 (786-0 renal) of 33.1 µM and a GI50 (A549 NSCLC) of 57.6 µM. For the same molecule, the GI50 (DU-145 prostate) was 21.6 µM, the GI50 (SNB-75 CNS) was 20.9 µM and the GI50 (BT-549 breast) was 40 µM. For the same molecule, the GI50 (SF-295 CNS) was 21.8 µM, the TGI (SF-295 CNS) was 64.9 µM and the GI50 (M14 melanoma) was 25.8 µM. For the same molecule, the GI50 (HL-60(TB) leukemia) was 2.06 µM, the TGI (HL-60(TB) leukemia) was 5.92 µM and the GI50 (UACC-62 melanoma) was 15.1 µM. For the same molecule, the GI50 (SW-620 colon) was 87.6 µM, the GI50 (MDA-MB-468 breast) was 9.42 µM and the TGI (MDA-MB-468 breast) was 49 µM. The GI50 (OVCAR-8 ovarian) was 37.2 µM, the GI50 (HCT-15 colon) was 40.8 µM and the GI50 (ACHN renal) was 24.6 µM. The TGI (ACHN renal) was 87.4 µM, the GI50 (CCRF-CEM leukemia) was 11.4 µM and the TGI (CCRF-CEM leukemia) was 24.2 µM. For the same molecule, the GI50 (UO-31 renal) was 74.1 µM, the GI50 (MOLT-4 leukemia) was 1.61 µM and the TGI (MOLT-4 leukemia) was 3 µM. For the same molecule, the GI50 (HT29 colon) was 91.5 µM, the GI50 (RPMI-8226 leukemia) was 17 µM and the GI50 (SF-268 CNS) was 13.7 µM. The GI50 (NCI/ADR-RES ovarian) was 52.2 µM, the GI50 (SNB-19 CNS) was 63 µM and the GI50 (LOX IMVI melanoma) was 39.9 µM. It also gave a GI50 (U251 glioblastoma) of 24 µM, a GI50 (NCI-H226 lung) of 56.3 µM and a GI50 (MALME-3M melanoma) of 98.8 µM. For the same molecule, the GI50 (NCI-H522 lung) was 32.7 µM, the GI50 (HOP-62 NSCLC) was 13.6 µM and the TGI (HOP-62 NSCLC) was 42.3 µM. For the same molecule, the GI50 (SN12C renal) was 18.3 µM, the GI50 (SF-539 CNS) was 24 µM and the TGI (SF-539 CNS) was 99 µM. It also gave a GI50 (MCF7 breast) of 30.9 µM.
